Patent US9539237B2, “Compositions and methods for drug-sensitization or inhibition of a cancer cell” (The Texas A&M University System, priority 2012, dated 2017)

Legend:
[1] = system: G3 CHOP-resistant NHL cells; experiment: G3 tumor efficacy studies in SCID mice; format: in vivo
Experimental: In a first efficacy study, 6-8 week old female SCID mice (7 mice per treatment arm) were injected subcutaneously on both flanks with 1×10^7 G3 CHOP-resistant NHL cells. Once palpable tumors (about […] size) appeared, therapies (CHOP or CHOP+rifabutin) were started. CHOP was administered at the maximum tolerated dose (cyclophosphamide, 40 mg/kg i.v.; doxorubicin, 3.3 mg/kg i.v.; vincristine, 0.5 mg/kg i.v.; and prednisone, 0.2 mg/kg orally daily for 5 d) weekly for 3 weeks. Rifabutin in an amount of 100 mg/kg was administered on the day of each CHOP treatment and 24-hours later by gavage. Mouse body weight and tumor size were monitored every two days and tumor size measured by caliper. The tumor volume formula (L*W*W)/2 was used to calculate tumor mass.
A second efficacy study was conducted where mice were treated before the appearance of palpable tumors. In that experiment, one week after transplantation of CHOP-resistant G3 cells, one group (7 mice) was treated with CHOP-only and a second group (8 mice) was treated with CHOP+rifabutin.
A third study was conducted in which mice injected with CHOP-resistant G3 cells received reduced dosages of CHOP in combination with 33 mg/kg rifabutin. CHOP+rifabutin was administered weekly beginning one week post-inoculation. Control mice were given no CHOP or rifabutin.
SCID mice were injected with CHOP-resistant G3 cells in the same manner as the first efficacy study above. Treatments began 2 weeks post-inoculation and were administered twice weekly.

[2] = system: CHOP-resistant G3 NHL cells; experiment: Cell growth assay (resazurin fluorescence) on G3 cells; format: cell-based, human
Experimental: Compositions were tested on CHOP-resistant G3 NHL cells that had been cultivated in RPMI medium for five days. Prior to assay, the cells were counted by haemocytometer and cell concentration standardized to 625,000 cells/ml. Test drugs were solubilized in 100% DMSO and then diluted to final assay concentration with 0.1M phosphate buffered saline (PBS) and a final DMSO concentration of 0.5%. […] The metabolic dye rezasurin was added to the wells of the assay plate at a final concentration of 20 μg/ml and the plates were incubated for an additional 24 hours. The plates were then read in a BMG Polarstar plate reader at wavelength (573-605) and the data plotted as OD versus increasing dilutions (i.e., decreasing total amounts) of rifabutin derivative concentration.
In these experiments, the following cell lines were used: CHOP-resistant NHL cell line G3, CHOP-sensitive NHL cell line CRL2631, the multi-drug resistant sarcoma cell line MES-SA-Dx5; multi-drug-resistant breast cancer cell line MDA-MB-231, multi-drug resistant ovarian carcinoma cell line SK-OV3, multi-drug resistant ovarian cancer cell line NCI/ADR-RES, drug-sensitive ovarian cancer cell line OVCAR-5, and multi-drug resistant ovarian cancer cell line OVCAR-3. […]

For CO[C@H]1/C=C/O[C@@]2(C)Oc3c(C)c(O)c4c(c3C2=O)C2=NC3(CCN(CC(C)C)CC3)NC2=C(NC(=O)/C(C)=C\C=C\[C@H](C)[C@H](O)[C@@H](C)[C@@H](O)[C@@H](C)[C@H](OC(C)=O)[C@@H]1C)C4=O [Rifabutin, rifabutin], the “Overall tumor burden per mouse versus CHOP only” value ([1]; first study, CHOP at maximum tolerated dose weekly for 3 weeks + rifabutin 100 mg/kg by gavage) was “much lower”, the “Tumor load versus untreated mice” value ([1]; third study, reduced dosages of CHOP + 33 mg/kg rifabutin weekly) was “significantly less” and the “Magnitude of potentiation in combination with doxorubicin” value ([2]; G3) was “+++ (+++ potentiation greater than 5 fold increase)”. For the same molecule, the “Effect on growth of cells in the absence of CHOP” value ([2]; G3 cells, FIG. 2A) was “did not affect the growth”.
